Values of other authors, collected in US20130031645A1, “METHOD FOR HEPATIC DIFFERENTIATION OF DEFINITIVE ENDODERM CELLS” (priority 2009, published 2013).

How the values were obtained:
[1] = tested on: retinoic acid receptors (RARs)

- affinity for the three RAR subtypes [1]: approximately equal affinity
- binding to the RXR receptors (RXR receptors): does not bind
SMILES: CC1=C(/C=C/C(C)=C/C=C/C(C)=C/C(=O)O)C(C)(C)CCC1 [ATRA, All-trans retinoic acid]
